Data set [1] has as its system 796 human tumor cell lines. Put plainly: PRISM multiplex cell line screening. Format: cell-based. The conditions noted are these: 5 days; relative to the other cell lines of the screen. Here is the method:
The PRISM cell set consisted of 796 cell lines representing more than 45 lineages, which largely overlapped with the Cancer Cell Line Encyclopedia (CCLE) (portals.broadinstitute.org/ccle). Cell lines were grown in RPMI without phenol red, supplemented with 10% or 20% FBS for adherent and suspended lines, respectively. Parental cell lines were stably infected with a unique 24-nucleotide DNA barcode via lentiviral transduction and blasticidin selection. After selection, barcoded cell lines were expanded and subjected to quality control (mycoplasma contamination test, a SNP test for confirming cell line identity, and barcode ID confirmation). Approved cell lines were then pooled (20-25 cell lines per pool) based on doubling time similarity and frozen in assay-ready vials.
RMC-7977 was added to 384-well plates at 8-point concentration with 3-fold dilutions in triplicate. These assay-ready plates were then seeded with the thawed cell line pools. […]
Each cell line's unique barcode is located in the 3′UTR of the blasticidin resistance gene and therefore is expressed as mRNA. […] Finally, Luminex beads that recognize the specific barcode sequences in the cell set were hybridized to the PCR products and detected using a Luminex scanner which reports signal as a median fluorescent intensity (MFI). […]

Data set [2] relates to autochthonous KPC pancreatic tumors. The conditions noted are these: 50 mg/kg q.o.d. The procedure: For survival study, KPC mice with 4-7 mm diameter tumors (as measured by ultrasound) were enrolled and treated every other day with Vehicle (n=9) or RMC-7977 (50 mg/kg; n=13). Animal health status and weight were checked daily and ultrasounds were performed every third day to monitor tumor growth. The survival end point was determined by overall health criteria scoring, where end point is determined by a score of 5 or greater based on the following criteria: • Moribund—immediate euthanasia • Abdominal distention due to hemorrhagic ascites—5 pts • Mild difficulty beathing—5 pts • Hypothermia—5 pts • Abdominal distention due to chylous ascites—3 pts • Loss of over 20% enrollment body weight—3 pts • Failure of grasp test—3 pts Jaundice or pallor—3 pts • Weak grasp test—2 pts • Failure to interact with other mice—1 pt • Hunched—1 pt • Pilorection/failure to groom—1 pt
Additional notes were made to better characterize the cause of death upon necropsy, including the presence of macro liver and/or lung metastases, jaundice, and tumor-mediated GI obstructions. Survival is denoted as Kaplan-Meier survival curves compared with a log-rank, Mantel-Cox test. Mice that reached endpoint criteria were sacrificed either at 4 or 24 hours after last dose in a manner consistent with IACUC standards and our own criteria scoring. Tissue was collected at time of necropsy for further analysis.

Data set [3] has as its system pERK, pS6, CC3, Cyclin A2 in KPC tumors. In words: Pharmacodynamic IHC of KPC tumors (SD, 1 wk, EP). In kind it is in vivo, mouse. Here is the method: Tumor formation in KPC mice was monitored by bi-weekly palpation. […] Treatments were performed every other day via oral gavage for 1 week. […] Following two consecutive ultrasounds, RMC-7977-treated animals were sacrificed either 4 (n=7) or 24 hours (n=4) after last dose and Vehicle-treated animals were sacrificed between 4-24 hours post last dose. Tissue was harvested and preserved as previously described (See Xenograft studies section). Additional group of KPC mice was also treated with a single dose of RMC-7977 (n=10) or Vehicle (n=3) and tissues were harvested at 4 or 24 hours post dose as previously described. […] RNA was extracted from at least 20 mg of indicated OCT or LN2 frozen tissue using an RNeasy Mini Kit (Qiagen, 74104) and a High Throughput Tissue grinder following the manufacturer's protocol. Reverse transcription was carried out using High-Capacity cDNA Reverse Transcription Kit (ABI, 4368814) according to the manufacturer's protocol. The cDNA product was used for qPCR analysis using TaqMan Gene Expression Master Mix (ABI, 4369016) or iTaq Universal SYBR Green Supermix (BioRad, 172-5125) depending on the primer. […] For qPCR, Ct value of MAPK signature genes and 18S were obtained for analysis. Generated Ct value were normalized to 18S, and then the mean relative mRNA expression levels of each sample were normalized to the average of the vehicle control group. Values were plotted as relative change in mRNA expression compared to Vehicle. Means±s.d. were shown. For primer sequences and more information. All tissues were fixed for up to 24 hours using 10% neutral buffered formalin and then moved to 70% ethanol for long term storage. All stainings were performed on 4-μm tissue sections. Sections were deparaffinized using a Leica XL ST5010 autostainer, after which slides were subjected to heat-activated epitope retrieval. […] Slides were further blocked in serum for 1 hour, and primary antibodies were added for overnight incubation at 4° C. […] Following incubation, ImmPACT DAB peroxidase (Vector Laboratories, SK-4100) was used to develop the stain and hematoxylin was used as nuclear counterstain. Stained slides were imaged at 40× magnification. Quantitative analyses of IHC images were performed using ImageJ.

Each structure is given as a SMILES string.

Regarding `CCn1c(-c2cc(N3CCN(C4CC4)CC3)cnc2[C@H](C)OC)c2c3cc(ccc31)-c1csc(n1)C[C@H](NC(=O)[C@H]1[C@@H]3COC[C@@H]31)C(=O)N1CCC[C@H](N1)C(=O)OCC(C)(C)C2` [RMC-7977], the “sensitivity of human PDAC cell lines in PRISM screen (AUC)” value in data set [1] is listed as “among the most sensitive”. Further, in data set [2], the “body weights compared with control KPC mice” value is listed as “similar” and the “tumor response by 3D-ultrasound” value was “tumor stabilizations or regressions”. The “increase in median survival compared to controls” value in data set [2] (KPC mice) was 3.5 fold. Also, in data set [3] (6 of 7 tumors, 4 hours post final dose), the “evaluable EP KPC tumors with full inhibition of pERK expression” value is reported as 86%. In data set [3] (EP tumors, 24 hours post-dosing), the “proliferation (Cyclin A2) in EP tumors” value is recorded as “no longer deeply suppressed”. In addition, in data set [3] (SD, 1 Wk and EP samples, 4 hours after treatment), the “apoptosis in KPC tumors” value is on record as “wave of apoptosis”. Moreover, the “reduced proliferation (Cyclin A2) in KPC tumors” value in data set [3] (after a week of treatment) is “pronounced and significant”. In data set [3] (single dose), the “proliferation (Cyclin A2) in KPC tumors” value is reported as “trend towards reduced proliferation” and the “time to restoration of Ras/Mapk signaling” value is not above 24 h. Besides, the “Ras/Mapk signaling (pERK IHC) in KPC tumors” value in data set [3] (single dose, 4 hours after treatment) is listed as “near-complete inhibition”. In addition, the “pS6 (S235/S236 and S240/S244) in EP tumors” value in data set [3] (the same 6 EP tumors) was “continued inhibition”.

(Values after patent publication US12662707B2, “MYC amplification drives resistance to pan-RAS inhibitors in pancreatic cancer” (The Trustees of Columbia University in the City of New York, priority 2024, dated 2026).)
